{
  "source": "patent US20250305004A1",
  "about": "“ENHANCING GENE TARGETING EFFICIENCY IN HUMAN CELLS WITH DNA-PK INHIBITOR TREATMENT” (The Board of Trustees of the Leland Stanford Junior …, priority 2022, published 2025)",
  "assay_type_in_all_cases": "cell-based, human",
  "key": {"[1]": {"test_system": "CCR5 locus in PSCs", "assay": "Single cell cloning of PSCs gene targeted at CCR5 locus", "method": "Allelic gene targeting efficiency was unaffected by pretreatment with AZD7648 with or without post treatment when compared to the corresponding controls.\nFor single cell cloning, gene targeted PSCs were plated at a density of 250 cells per well of a 6-well plate in mTeSR1 medium supplemented with 1× CloneR™2 ([…] technologies, cat: 100-0691) and incubated at 37° C. for 2 days. After 2 days, medium was switched to fresh mTeSR1 medium supplemented with 1× CloneR™2. 2 days later, the cells were switched to and maintained in mTeSR1 medium with daily media changes. At D7-D10, single cell colonies were picked by scraping and were then propagated individually. Gene targeting was assessed in single cell clones by ddPCR as mentioned above and by PCR amplifying the region spanning the knock-in to determine the frequency of mono-, bi-allelic and non-targeted clones."}, "[2]": {"test_system": "STING1 locus in HSPCs", "assay": "RNP/AAV6 gene targeting at STING1 locus in HSPCs", "details": "seemingly inactive gRNA (sg5)", "description": "ICE analysis for quantification of gene editing.\nCD34+ HSPC culture and genome editing."}, "[3]": {"test_system": "top off-target sites of HBB, CCR5 and HBA1 gRNAs in HSPCs", "assay": "NGS off-target analysis in gene targeted HSPCs", "description": "For this, we assessed the previously characterized top off-target site for CCR5 (OT39)^66, HBB (OT1)^72 and HBA1 (OT1)74 gRNAs in the gene targeted HSPCs using next generation sequencing (NGS). […] Blocking of specific off-target breaks is possible, however, if there were biologically important reasons to do so^79, 80. […] Thus, gene editing with AZD treatment increases the frequency alleles with WT sequence and deletion INDELs without the HDR donor template.\nNGS analysis for off-target effects. For this, we used commercially available Amplicon-EZ next generation sequencing service from AZENTA, Inc. Previously characterized top off-target site for CCR5 (OT39), HBB (OT1) and HBA1 (OT1) gRNAs were analyzed. PCR was used to amplify a 350-450 bp region encompassing the off-target sites from genomic DNA of the gene targeted HSPCs. Following are the primers used for PCR,\nFollowing PCR, the amplicons were purified using Genejet PCR purification kit (Thermo Fisher Scientific, cat: K0701). The samples were normalized to a concentration of 20 ng/μl and 25 μl volume was submitted for Amplicon-EZ NGS service (AZENTA, Inc). DNA library preparations, sequencing reactions, and bioinformatics analysis were conducted at AZENTA, Inc. DNA Library Preparation was done using NEBNext Ultra DNA Library Prep kit following the manufacturer's recommendations (NEB). […] DNA libraries were validated on the Agilent TapeStation (Agilent Technologies) and were quantified using Qubit 2.0 Fluorometer (Invitrogen) and multiplexed in equal molar mass. […] The raw Illumina reads were checked for adapters and quality via FastQC. The raw Illumina sequence reads were trimmed of their adapters and nucleotides with poor quality using Trimmomatic v.0.36. Paired sequence reads were then merged to form a single sequence if the forward and reverse reads were able to overlap. The merged reads were aligned to the reference sequence and variant detection was performed using AZENTA proprietary Amplicon-EZ program. INDEL frequency at the target site was quantified and plotted as the frequency of reads with insertions and deletions."}, "[4]": {"test_system": "CCR5 locus in HSPCs", "assay": "RNP/AAV6 gene targeting at CCR5 locus in CD34+ HSPCs", "details": "two stop codons; sg1 and sg4", "method": "ddPCR analysis of targeted integration. Gene targeting efficiency for the knock-in of multi-kb sequences was measured through digital droplet PCR (ddPCR) analysis. For this, genomic DNA was extracted from cells using the QuickExtract™ DNA Extraction Solution (QE) (Lucigen, Cat: QE09050). Pellets of 100,000 to 200,000 cells were resuspended in 40 to 50 μl of QE solution. This cell suspension was incubated at 65° C. for 6 mins and then 100° C. for 10 mins. The quick extracted genomic DNA was digested with either BamHI-HF or HindIII-HF (NEB) enzymes at 37° C. for 1 to 2 hours. […] 40 μl of the generated droplet sample was used for the PCR with the following cycle: 95° C. for 10 mins, 50 cycles of 94° C. for 30 secs, 60° C. for 30 secs and 72° C. for 2 mins and 98° C. for 10 mins. After PCR, the droplets were analyzed using the QX200 Droplet Digital PCR reader (Biorad) and Quantasoft software was used to determine the number of copies of the target and reference DNA in the droplets. The allelic gene targeting efficiency was calculated as the percentage of target DNA copies relative to that of the reference. […]\nICE analysis for quantification of gene editing. […] Following PCR, the amplicons were detected on agarose gel and purified from the gel using GeneJet Gel Extraction Kit (Thermo Fisher Scientific, cat: K0692). […]"}, "[5]": {"test_system": "CCR5 locus in PSCs", "assay": "RNP/AAV6 gene targeting at CCR5 locus, knock-in of two stop codons, PSCs", "details": "low activity gRNAs sg1 and sg4; 0.5 μM", "method": "PSC culture and genome editing. […] For each nucleofection, RNP complex was prepared with 5 μg of Cas9 protein and 2 μg of gRNA and incubated for 15 mins at room temperature. PSCs were dissociated into single cells using Accutase (Innovative Cell Technologies, cat: AT104). […] Resuspended cells were added to one well of a 16-well Nucleocuvette Strip (Lonza) and nucleofection was performed in the 4D nucleofector (Lonza) using the program, CA137. Nucleofected PSCs were plated in mTeSR1 medium supplemented with 10 μM of Y27632 at a density of 100,000 cells per well in 48-well plate, AAV6 vector and DNA-PKcs inhibitors were added to the medium at indicated concentrations. […] From the following day, PSCs were cultured in mTeSR1 without Y27632. Gene targeting efficiency was analyzed at 4-6 days post-editing.\nICE analysis for quantification of gene editing. ICE CRISPR analysis tool (Synthego) was used to determine the allelic distribution of WT, INDEL and HDR frequencies for gene targeting involving knock-in of short sequences and for calculating the frequency of WT and INDEL alleles for gene targeting involving knock-in of multi-kb sequences. […] Following PCR, the amplicons were detected on agarose gel and purified from the gel using GeneJet Gel Extraction Kit (Thermo Fisher Scientific, cat: K0692). […]"}},
  "data": [
    {"smiles": "Cc1cc2ncnn2cc1Nc1ncc2c(n1)n(C1CCOCC1)c(=O)n2C", "note": "[AZD7648, 7-methyl-2-((7-methyl-[1,2,4]triazolo[l,5-a]pyridin-6-yl)amino)-9-(tetrahydro-2H-pyran-4-yl)-7,9-dihydro-8H-purin-8-one]", "values": [
      {"measurement": "clones with bi-allelic knock-in", "setting": "[1]; 0.1 μM", "value": 60, "unit": "%"},
      {"measurement": "clones with bi-allelic knock-in", "setting": "[1]; 0.5 μM, untreated 30%", "value": 90, "unit": "%"},
      {"measurement": "INDELs after gene targeting", "setting": "[2]", "value": "no INDELs"},
      {"measurement": "reads with INDELs at off-target site", "setting": "[3]; OT1 site for HBA1 gRNA, untreated […]", "value": "around 0.5%"},
      {"measurement": "reads with INDELs at off-target site", "setting": "[3]; OT1 site for HBB gRNA, 0.5 μM, untreated 1%", "value": "about 3%"},
      {"measurement": "reads with INDELs at off-target site", "setting": "[3]; OT39 site for CCR5 gRNA, untreated below detection limit", "value": 0.03, "unit": "%"},
      {"measurement": "INDELs after gene targeting", "setting": "[4]", "value": "INDEL-free HDR"},
      {"measurement": "INDELs after gene targeting", "setting": "[5]", "value": "INDEL-free"}
    ]}
  ]
}
